Assay results: paper PMC8511016, “Src acts as the target of matrine to inhibit the proliferation of cancer cells by regulating phosphorylation signaling pathways” (Cell Death & Disease, 2021)
pIC50: −log10 of the molar value.

Target: T1, Src (Homo sapiens, UniProt P12931)
T1 construct: recombinant GST-Src (full-length) and GST-Kinase (270–536 aa); endogenous Src in cell lysates
Test: matrine-bead pull-down of recombinant GST-Src/GST-Kinase competed by free matrine; CETSA and DARTS in lysates; IC50 from Src kinase activity kit in SKOV3 cells ([…] ATP)
Assay type: binding

T1 sequence (P12931 2-536): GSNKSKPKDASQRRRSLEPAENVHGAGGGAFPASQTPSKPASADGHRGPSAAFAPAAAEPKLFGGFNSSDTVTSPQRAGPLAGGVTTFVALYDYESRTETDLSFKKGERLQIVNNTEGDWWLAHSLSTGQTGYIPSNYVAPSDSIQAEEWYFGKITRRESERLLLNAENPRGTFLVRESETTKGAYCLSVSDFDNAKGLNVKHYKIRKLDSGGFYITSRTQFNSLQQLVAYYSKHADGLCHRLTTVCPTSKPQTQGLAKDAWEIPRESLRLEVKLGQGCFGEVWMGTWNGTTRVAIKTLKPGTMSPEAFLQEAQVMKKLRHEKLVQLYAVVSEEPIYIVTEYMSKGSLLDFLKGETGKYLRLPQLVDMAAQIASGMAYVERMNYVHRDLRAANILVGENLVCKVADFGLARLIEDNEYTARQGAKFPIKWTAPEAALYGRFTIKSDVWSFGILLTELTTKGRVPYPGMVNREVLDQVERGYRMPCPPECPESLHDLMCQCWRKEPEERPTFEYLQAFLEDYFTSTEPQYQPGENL

O=C1CCC[C@@H]2[C@H]3CCCN4CCC[C@@H](CN12)[C@@H]34 [MA, matrine]
pIC50: 2.13
